# Test results as given in patent US12390441B2, “Immunomodulating o-het/aryl azalides” (Zoetis Services LLC, priority 2020, dated 2025).
# Marks after values point to notes of the source that are not given here.
# Tested on: BRD pathogens, M. haemolytica and P. multocida
# Test: In-vitro MIC model, BRD pathogen screening panel
# Format: cell-based, Mannheimia haemolytica; Pasteurella multocida
# Details: at least one BRD strain
row,Compound,MIC flag at the example number (Table E)
1,CCCNC[C@]1(O)[C@H](C)O[C@@H](O[C@H]2[C@H](C)[C@@H](O[C@@H]3O[C@H](C)C[C@H](NC)[C@H]3Oc3cc(F)cc(F)c3)[C@](C)(O)C[C@@H](C)CN[C@H](C)[C@@H](O)[C@](C)(O)[C@@H](CC)OC(=O)[C@@H]2C)C[C@@]1(C)OC [Example E-16],E-16* (MIC ≤ 64 μg/mL for at least one BRD strain)
2,CCCNC[C@]1(O)[C@H](C)O[C@@H](O[C@H]2[C@H](C)[C@@H](O[C@@H]3O[C@H](C)C[C@H](NC)[C@H]3Oc3cc(F)ccc3OC)[C@](C)(O)C[C@@H](C)CN[C@H](C)[C@@H](O)[C@](C)(O)[C@@H](CC)OC(=O)[C@@H]2C)C[C@@]1(C)OC [Example E-17],E-17* (MIC ≤ 64 μg/mL for at least one BRD strain)
3,CCCNC[C@]1(O)[C@H](C)O[C@@H](O[C@H]2[C@H](C)[C@@H](O[C@@H]3O[C@H](C)C[C@H](NC)[C@H]3Oc3cc(OC)ccc3F)[C@](C)(O)C[C@@H](C)CN[C@H](C)[C@@H](O)[C@](C)(O)[C@@H](CC)OC(=O)[C@@H]2C)C[C@@]1(C)OC [Example E-18],E-18* (MIC ≤ 64 μg/mL for at least one BRD strain)
4,CCCNC[C@]1(O)[C@H](C)O[C@@H](O[C@H]2[C@H](C)[C@@H](O[C@@H]3O[C@H](C)C[C@H](NC)[C@H]3Oc3cccc(Cl)c3)[C@](C)(O)C[C@@H](C)CN[C@H](C)[C@@H](O)[C@](C)(O)[C@@H](CC)OC(=O)[C@@H]2C)C[C@@]1(C)OC [Example E-21],E-21* (MIC ≤ 64 μg/mL for at least one BRD strain)
5,CCCNC[C@]1(O)[C@H](C)O[C@@H](O[C@H]2[C@H](C)[C@@H](O[C@@H]3O[C@H](C)C[C@H](NC)[C@H]3Oc3ccc(F)c(C)c3)[C@](C)(O)C[C@@H](C)CN[C@H](C)[C@@H](O)[C@](C)(O)[C@@H](CC)OC(=O)[C@@H]2C)C[C@@]1(C)OC [Example E-22],E-22* (MIC ≤ 64 μg/mL for at least one BRD strain)
6,CCCNC[C@]1(O)[C@H](C)O[C@@H](O[C@H]2[C@H](C)[C@@H](O[C@@H]3O[C@H](C)C[C@H](NC)[C@H]3Oc3ccc(F)cc3C)[C@](C)(O)C[C@@H](C)CN[C@H](C)[C@@H](O)[C@](C)(O)[C@@H](CC)OC(=O)[C@@H]2C)C[C@@]1(C)OC [Example E-23],E-23* (MIC ≤ 64 μg/mL for at least one BRD strain)
7,CCCNC[C@]1(O)[C@H](C)O[C@@H](O[C@H]2[C@H](C)[C@@H](O[C@@H]3O[C@H](C)C[C@H](N(C)C)[C@H]3Oc3ccc(OC)c(OC(C)C)c3)[C@](C)(O)C[C@@H](C)CN[C@H](C)[C@@H](O)[C@](C)(O)[C@@H](CC)OC(=O)[C@@H]2C)C[C@@]1(C)OC [Example E-29],E-29* (MIC ≤ 64 μg/mL for at least one BRD strain)
8,CCCNC[C@]1(O)[C@H](C)O[C@@H](O[C@H]2[C@H](C)[C@@H](O[C@@H]3O[C@H](C)C[C@H](NC)[C@H]3Oc3ccncc3)[C@](C)(O)C[C@@H](C)CN[C@H](C)[C@@H](O)[C@](C)(O)[C@@H](CC)OC(=O)[C@@H]2C)C[C@@]1(C)OC [Example E-32],E-32* (MIC ≤ 64 μg/mL for at least one BRD strain)
9,CCCNC[C@]1(O)[C@H](C)O[C@@H](O[C@H]2[C@H](C)[C@@H](O[C@@H]3O[C@H](C)C[C@H](NC)[C@H]3Oc3ncccn3)[C@](C)(O)C[C@@H](C)CN[C@H](C)[C@@H](O)[C@](C)(O)[C@@H](CC)OC(=O)[C@@H]2C)C[C@@]1(C)OC [Example E-33],E-33* (MIC ≤ 64 μg/mL for at least one BRD strain)
10,CCCNC[C@]1(O)[C@H](C)O[C@@H](O[C@H]2[C@H](C)[C@@H](O[C@@H]3O[C@H](C)C[C@H](NC)[C@H]3Oc3ccc([N+](=O)[O-])cc3)[C@](C)(O)C[C@@H](C)CN[C@H](C)[C@@H](O)[C@](C)(O)[C@@H](CC)OC(=O)[C@@H]2C)C[C@@]1(C)OC [Example E-35],E-35* (MIC ≤ 64 μg/mL for at least one BRD strain)
11,CCCNC[C@]1(O)[C@H](C)O[C@@H](O[C@H]2[C@H](C)[C@@H](O[C@@H]3O[C@H](C)C[C@H](NC)[C@H]3Oc3cccnc3C)[C@](C)(O)C[C@@H](C)CN[C@H](C)[C@@H](O)[C@](C)(O)[C@@H](CC)OC(=O)[C@@H]2C)C[C@@]1(C)OC [Example E-44],E-44* (MIC ≤ 64 μg/mL for at least one BRD strain)
12,CCCNC[C@]1(O)[C@H](C)O[C@@H](O[C@H]2[C@H](C)[C@@H](O[C@@H]3O[C@H](C)C[C@H](NC)[C@H]3Oc3cc(C)ccc3F)[C@](C)(O)C[C@@H](C)CN[C@H](C)[C@@H](O)[C@](C)(O)[C@@H](CC)OC(=O)[C@@H]2C)C[C@@]1(C)OC [Example E-53],E-53* (MIC ≤ 64 μg/mL for at least one BRD strain)
13,CCCNC[C@]1(O)[C@H](C)O[C@@H](O[C@H]2[C@H](C)[C@@H](O[C@@H]3O[C@H](C)C[C@H](NC)[C@H]3Oc3cccc(OC(F)(F)F)c3)[C@](C)(O)C[C@@H](C)CN[C@H](C)[C@@H](O)[C@](C)(O)[C@@H](CC)OC(=O)[C@@H]2C)C[C@@]1(C)OC [Example E-54],E-54* (MIC ≤ 64 μg/mL for at least one BRD strain)
14,CCCNC[C@]1(O)[C@H](C)O[C@@H](O[C@H]2[C@H](C)[C@@H](O[C@@H]3O[C@H](C)C[C@H](NC)[C@H]3Oc3ccc(F)c(F)c3F)[C@](C)(O)C[C@@H](C)CN[C@H](C)[C@@H](O)[C@](C)(O)[C@@H](CC)OC(=O)[C@@H]2C)C[C@@]1(C)OC [Example E-55],E-55* (MIC ≤ 64 μg/mL for at least one BRD strain)
15,CCCNC[C@]1(O)[C@H](C)O[C@@H](O[C@H]2[C@H](C)[C@@H](O[C@@H]3O[C@H](C)C[C@H](NC)[C@H]3Oc3ccc(F)cc3F)[C@](C)(O)C[C@@H](C)CN[C@H](C)[C@@H](O)[C@](C)(O)[C@@H](CC)OC(=O)[C@@H]2C)C[C@@]1(C)OC [Example E-58],E-58* (MIC ≤ 64 μg/mL for at least one BRD strain)
16,CCCNC[C@]1(O)[C@H](C)O[C@@H](O[C@H]2[C@H](C)[C@@H](O[C@@H]3O[C@H](C)C[C@H](NC)[C@H]3Oc3cccnc3OCC)[C@](C)(O)C[C@@H](C)CN[C@H](C)[C@@H](O)[C@](C)(O)[C@@H](CC)OC(=O)[C@@H]2C)C[C@@]1(C)OC [Example E-59],E-59* (MIC ≤ 64 μg/mL for at least one BRD strain)
17,CCCNC[C@]1(O)[C@H](C)O[C@@H](O[C@H]2[C@H](C)[C@@H](O[C@@H]3O[C@H](C)C[C@H](NC)[C@H]3Oc3cccc4cc[nH]c34)[C@](C)(O)C[C@@H](C)CN[C@H](C)[C@@H](O)[C@](C)(O)[C@@H](CC)OC(=O)[C@@H]2C)C[C@@]1(C)OC [Example E-65],E-65* (MIC ≤ 64 μg/mL for at least one BRD strain)
18,CCCNC[C@]1(O)[C@H](C)O[C@@H](O[C@H]2[C@H](C)[C@@H](O[C@@H]3O[C@H](C)C[C@H](NC)[C@H]3Oc3ccccc3S(C)(=O)=O)[C@](C)(O)C[C@@H](C)CN[C@H](C)[C@@H](O)[C@](C)(O)[C@@H](CC)OC(=O)[C@@H]2C)C[C@@]1(C)OC [Example E-66],E-66* (MIC ≤ 64 μg/mL for at least one BRD strain)
19,CCCNC[C@]1(O)[C@H](C)O[C@@H](O[C@H]2[C@H](C)[C@@H](O[C@@H]3O[C@H](C)C[C@H](N(C)C)[C@H]3Oc3cncc(C(F)(F)F)c3)[C@](C)(O)C[C@@H](C)CN[C@H](C)[C@@H](O)[C@](C)(O)[C@@H](CC)OC(=O)[C@@H]2C)C[C@@]1(C)OC [Example E-70],E-70* (MIC ≤ 64 μg/mL for at least one BRD strain)
